Laboratory results as given in BindingDB's records for doi:10.1016/j.bmcl.2007.06.085 (Merck, 2007).

Target: Substance-P receptor (Homo sapiens, UniProt P25103)
Experiment: Displacement of [3H]SP from human NK1 receptor expressed in CHO cells

Sequence of Substance-P receptor (P25103 whole entry): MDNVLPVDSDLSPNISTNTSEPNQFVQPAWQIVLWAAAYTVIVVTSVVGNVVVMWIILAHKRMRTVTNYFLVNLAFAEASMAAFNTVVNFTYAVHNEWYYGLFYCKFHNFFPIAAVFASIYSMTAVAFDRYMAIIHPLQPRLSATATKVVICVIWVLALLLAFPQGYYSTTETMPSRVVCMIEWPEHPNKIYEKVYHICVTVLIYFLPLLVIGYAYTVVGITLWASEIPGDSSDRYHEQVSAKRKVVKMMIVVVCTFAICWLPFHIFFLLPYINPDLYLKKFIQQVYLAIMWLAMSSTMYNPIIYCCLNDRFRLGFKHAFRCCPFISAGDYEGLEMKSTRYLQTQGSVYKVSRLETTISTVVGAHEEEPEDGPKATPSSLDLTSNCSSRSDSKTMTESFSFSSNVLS

## C[C@@H](O[C@@H]1CN(C2CC(=O)C(=O)C2)C[C@H]1c1ccc(F)cc1)c1cc(C(F)(F)F)cc(C(F)(F)F)c1 [3-((3S,4R)-3-((R)-1-(3,5-bis(trifluoromethyl)phenyl)ethoxy)-4-(4-fluorophenyl)pyrrolidin-1-yl)-5-hydroxycyclopent-2-enone]
  IC50: 0.3 nM
